The nature of experiment [1]: Inhibition of [20-3H]phorbol 12,13-dibutyrate binding to protein kinase C.
For another experiment, the system named is P388. The experiment can be described thus: Cytotoxicity against mouse P388 cells. The class given is functional. Conditions: read-out: ED50 (the source's name).
For experiment [2], the system named is Human immunodeficiency virus 1. Briefly: Antiviral activity against HIV1 RF in human CEM-SS cells assessed as cell protection from infection after 7 days. In kind it is functional, organism-based. Particulars: Human immunodeficiency virus 1, CEM-SS, 168 h.
For experiment [3], the system named is Human immunodeficiency virus 1. Briefly: Antiviral activity against HIV1 RF in human CEM-SS cells assessed as cell protection from infection at 2 to 5 uM after 7 days relative to control. In kind it is functional.
The test system of a further experiment is CEM-SS. Briefly: Cytotoxicity against human CEM-SS cells assessed as inhibition of cell metabolic activity after 7 days by XTT assay. The class given is functional, cell-based. Conditions: 168 h.

Structures are written as SMILES. Values after ≈ are worked out from the molar mass of the structure shown.

We go through 1 molecule from ChEMBL document CHEMBL1150629, “Isolation and structure of pedilstatin from a republic of maldives Pedilanthus sp” (J Nat Prod, 2002).

For `CCC/C=C/C=C\C(=O)O[C@@H]1[C@@H](C)[C@]2(O)[C@@H]3C=C(C)C(=O)[C@@H]3CC(CO)=C[C@H]2[C@@H]2C(C)(C)[C@]12OC(C)=O` [PEDILSTATIN], in experiment [1], the Ki came to 620 nM. The EC50 in the experiment with P388 came to 0.28 µg/mL (≈ 0.546 µM); in experiment [2], 1030 nM. In addition, in experiment [3], the Activity turned out to be 80%. In the experiment on CEM-SS, the IC50 worked out at 13300 nM.
